Test [1] concerns the target T1, Phosphatidylinositol 5-phosphate 4-kinase type-2 gamma (Homo sapiens) (UniProt Q8TBX8).
T1 sequence (whole entry): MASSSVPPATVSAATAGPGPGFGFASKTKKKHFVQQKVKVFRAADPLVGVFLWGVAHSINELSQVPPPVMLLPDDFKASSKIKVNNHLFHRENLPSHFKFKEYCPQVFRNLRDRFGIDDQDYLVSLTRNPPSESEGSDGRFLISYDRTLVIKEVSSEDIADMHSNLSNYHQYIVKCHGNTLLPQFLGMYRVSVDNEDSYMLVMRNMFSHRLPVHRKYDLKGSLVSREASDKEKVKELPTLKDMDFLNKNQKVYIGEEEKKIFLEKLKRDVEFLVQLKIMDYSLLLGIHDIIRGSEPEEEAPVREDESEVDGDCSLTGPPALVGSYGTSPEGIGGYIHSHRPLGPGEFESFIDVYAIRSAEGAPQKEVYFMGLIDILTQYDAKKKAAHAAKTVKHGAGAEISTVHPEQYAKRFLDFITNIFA
In words: Selectivity interaction (ActivX KiNativ screen (ex vivo kinase selectivity in human PBMCs)) EUB0001619a PIP4K2C. The test is classed as cell-based. To be noted: PBMC, at 1 µM.

Test [2] concerns the target Serine/threonine-protein kinase 33 (Homo sapiens) (UniProt Q9BYT3). In words: Selectivity interaction (KinomeScan (DiscoverX)) EUB0001619a STK33. To be noted: at 1 µM.
Test [3] deals with Serine/threonine-protein kinase WNK1 (Homo sapiens) (UniProt Q9H4A3). In words: Selectivity interaction (ActivX KiNativ screen (ex vivo kinase selectivity in human PBMCs)) EUB0001619a WNK1. The test is classed as cell-based. To be noted: PBMC, at 1 µM.
The target of test [4] is Sigma non-opioid intracellular receptor 1 (Homo sapiens) (UniProt Q99720). In words: Selectivity interaction (Eurofins CEREP Diversity Profile (receptors and ion channels)) EUB0000279b SIGMAR1. To be noted: at 10 µM.
The target of test [5] is Serine/threonine-protein kinase PRP4 homolog (Homo sapiens) (UniProt Q13523). Put plainly: Selectivity interaction (ActivX KiNativ screen (kinase selectivity in THP-1 cell lysates)) EUB0000639a PRPF4. The test is classed as subcellular. To be noted: lysate, at 0.04 µM.
The target of test [6] is Ribosomal protein S6 kinase alpha-1 (Homo sapiens, UniProt Q15418). In words: Selectivity interaction (ActivX KiNativ screen (kinase selectivity in THP-1 cell lysates)) EUB0000639a RPS6KA1. The test is classed as subcellular. To be noted: lysate, at 5 µM.
Test [7] has as its target Tyrosine-protein kinase ABL1 (Homo sapiens, UniProt P00519). Put plainly: Selectivity interaction (KinomeScan (DiscoverX)) EUB0000045b ABL1. To be noted: at 10 µM.
Test [8] deals with Non-receptor tyrosine-protein kinase TYK2 (Homo sapiens, UniProt P29597). In words: Selectivity interaction (KinomeScan (DiscoverX)) EUB0000045b TYK2.
Test [9] has as its target Serine/threonine-protein kinase PAK 6 (Homo sapiens) (UniProt Q9NQU5). Put plainly: Selectivity interaction (Upstate Kinase Profiler service (Millipore)) EUB0000056c PAK6. To be noted: at 1 µM.
Test [10] deals with 5-hydroxytryptamine receptor 3A (Homo sapiens, UniProt P46098). In words: Selectivity interaction (Serotonin 5HT3 receptor assay, human recombinant ) EUB0000877a HTR3A.
Test [11] deals with TP53-binding protein 1 (Homo sapiens) (UniProt Q12888). Put plainly: Selectivity interaction (PWWP, WD40, and Tudor domain panel (DSLS measurements, literature)) EUB0000270b TP53BP1.
The target in test [12] is T2, Alpha-2A adrenergic receptor (Homo sapiens) (UniProt P08913).
T2 sequence (whole entry): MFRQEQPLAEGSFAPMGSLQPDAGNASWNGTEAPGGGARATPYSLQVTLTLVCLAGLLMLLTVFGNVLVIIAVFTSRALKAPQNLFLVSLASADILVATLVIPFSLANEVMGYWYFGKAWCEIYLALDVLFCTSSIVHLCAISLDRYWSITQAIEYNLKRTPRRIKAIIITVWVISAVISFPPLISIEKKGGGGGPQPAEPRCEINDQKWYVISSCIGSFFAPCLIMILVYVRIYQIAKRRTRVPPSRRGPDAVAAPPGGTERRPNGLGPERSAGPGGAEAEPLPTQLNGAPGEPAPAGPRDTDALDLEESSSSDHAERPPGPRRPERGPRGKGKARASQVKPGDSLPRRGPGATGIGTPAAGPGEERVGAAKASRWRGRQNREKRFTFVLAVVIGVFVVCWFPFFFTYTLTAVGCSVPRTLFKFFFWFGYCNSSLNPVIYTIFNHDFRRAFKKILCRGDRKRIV
In words: Selectivity interaction (GPCR panel (PDSP screen)) EUB0001079a ADRA2A. To be noted: at 10 µM.

Test [13] has as its target Tyrosine-protein kinase Blk (Homo sapiens) (UniProt P51451). Put plainly: Selectivity interaction (KinomeScan (DiscoverX)) EUB0001079a BLK. To be noted: at 1 µM.
The target in test [14] is Cyclin-dependent kinase 5 (Homo sapiens, UniProt Q00535). Put plainly: Selectivity interaction (KinomeScan (DiscoverX)) EUB0001079a CDK5. To be noted: at 1 µM.
The target in test [15] is T3, Mitogen-activated protein kinase kinase kinase kinase 3 (Homo sapiens) (UniProt Q8IVH8).
T3 sequence (whole entry): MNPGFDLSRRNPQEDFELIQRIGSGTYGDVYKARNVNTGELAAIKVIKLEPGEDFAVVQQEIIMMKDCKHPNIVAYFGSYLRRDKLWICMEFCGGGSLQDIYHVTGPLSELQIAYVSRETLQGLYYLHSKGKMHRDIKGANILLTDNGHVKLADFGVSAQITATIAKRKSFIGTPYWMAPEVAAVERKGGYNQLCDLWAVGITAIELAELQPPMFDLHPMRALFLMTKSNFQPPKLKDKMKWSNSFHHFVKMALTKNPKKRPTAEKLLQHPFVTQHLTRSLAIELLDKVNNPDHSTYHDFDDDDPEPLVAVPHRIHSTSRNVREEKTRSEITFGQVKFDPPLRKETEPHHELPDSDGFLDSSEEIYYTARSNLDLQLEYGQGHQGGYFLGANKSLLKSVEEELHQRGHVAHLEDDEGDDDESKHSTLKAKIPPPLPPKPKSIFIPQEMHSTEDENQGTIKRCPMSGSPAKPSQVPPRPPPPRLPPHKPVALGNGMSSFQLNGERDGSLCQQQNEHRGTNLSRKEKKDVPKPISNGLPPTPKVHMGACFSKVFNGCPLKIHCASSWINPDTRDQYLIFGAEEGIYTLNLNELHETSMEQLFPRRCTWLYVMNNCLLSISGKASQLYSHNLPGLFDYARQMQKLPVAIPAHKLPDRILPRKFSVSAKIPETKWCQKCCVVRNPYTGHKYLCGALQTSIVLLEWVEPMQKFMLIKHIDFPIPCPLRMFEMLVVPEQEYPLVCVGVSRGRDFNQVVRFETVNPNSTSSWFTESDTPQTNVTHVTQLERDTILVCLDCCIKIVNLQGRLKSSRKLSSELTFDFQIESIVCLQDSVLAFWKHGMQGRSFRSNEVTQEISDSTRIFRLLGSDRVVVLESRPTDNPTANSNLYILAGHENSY
In words: Selectivity interaction (KinomeScan (DiscoverX)) EUB0001079a MAP4K3. To be noted: at 1 µM.

Some results are limits rather than exact numbers.

Sequence of Non-receptor tyrosine-protein kinase TYK2 (P29597 whole entry): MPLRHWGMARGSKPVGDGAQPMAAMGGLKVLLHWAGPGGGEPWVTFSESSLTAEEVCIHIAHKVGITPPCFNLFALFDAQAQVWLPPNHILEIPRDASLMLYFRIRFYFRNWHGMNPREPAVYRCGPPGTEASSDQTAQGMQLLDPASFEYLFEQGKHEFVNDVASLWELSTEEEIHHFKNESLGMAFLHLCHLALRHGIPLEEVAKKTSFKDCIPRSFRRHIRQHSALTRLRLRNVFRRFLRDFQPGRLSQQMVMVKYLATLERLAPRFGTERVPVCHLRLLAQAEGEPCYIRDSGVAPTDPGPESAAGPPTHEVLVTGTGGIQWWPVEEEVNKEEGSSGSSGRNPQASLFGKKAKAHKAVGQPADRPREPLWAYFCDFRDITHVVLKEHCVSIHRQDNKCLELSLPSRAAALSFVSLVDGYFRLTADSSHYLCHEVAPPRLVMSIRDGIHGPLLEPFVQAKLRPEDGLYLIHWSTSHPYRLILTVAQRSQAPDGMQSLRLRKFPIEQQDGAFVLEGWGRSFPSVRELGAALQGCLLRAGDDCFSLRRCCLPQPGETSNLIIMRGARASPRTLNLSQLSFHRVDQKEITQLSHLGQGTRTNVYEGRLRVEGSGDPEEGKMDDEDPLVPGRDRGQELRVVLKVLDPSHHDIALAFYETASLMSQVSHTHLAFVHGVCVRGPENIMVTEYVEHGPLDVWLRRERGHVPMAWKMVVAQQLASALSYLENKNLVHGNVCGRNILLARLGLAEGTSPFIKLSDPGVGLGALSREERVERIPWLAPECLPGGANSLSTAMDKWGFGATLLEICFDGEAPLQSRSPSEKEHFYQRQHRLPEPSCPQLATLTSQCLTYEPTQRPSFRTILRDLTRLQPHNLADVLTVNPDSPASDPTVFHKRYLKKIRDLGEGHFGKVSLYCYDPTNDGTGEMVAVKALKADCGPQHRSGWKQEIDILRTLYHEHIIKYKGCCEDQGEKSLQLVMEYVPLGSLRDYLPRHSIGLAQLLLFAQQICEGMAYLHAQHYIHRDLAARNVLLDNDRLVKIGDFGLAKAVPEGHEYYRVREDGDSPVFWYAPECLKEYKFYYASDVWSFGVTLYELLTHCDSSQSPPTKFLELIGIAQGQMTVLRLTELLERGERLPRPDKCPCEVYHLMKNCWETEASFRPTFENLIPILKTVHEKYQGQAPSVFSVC
Sequence of 5-hydroxytryptamine receptor 3A (P46098 whole entry, the tested form may be a part): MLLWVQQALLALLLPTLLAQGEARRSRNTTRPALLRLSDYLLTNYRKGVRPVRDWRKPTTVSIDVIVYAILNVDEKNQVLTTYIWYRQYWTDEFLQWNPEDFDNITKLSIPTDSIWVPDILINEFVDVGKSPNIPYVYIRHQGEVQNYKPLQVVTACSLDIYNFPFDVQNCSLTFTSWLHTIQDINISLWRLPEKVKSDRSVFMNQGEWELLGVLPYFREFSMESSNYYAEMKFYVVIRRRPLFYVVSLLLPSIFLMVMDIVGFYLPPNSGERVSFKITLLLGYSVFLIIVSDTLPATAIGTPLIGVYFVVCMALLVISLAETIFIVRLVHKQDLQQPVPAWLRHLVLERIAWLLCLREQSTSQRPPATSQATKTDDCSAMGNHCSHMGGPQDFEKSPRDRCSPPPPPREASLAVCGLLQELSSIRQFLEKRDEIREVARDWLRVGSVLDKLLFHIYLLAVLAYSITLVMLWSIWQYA
Sequence of Tyrosine-protein kinase ABL1 (P00519 whole entry): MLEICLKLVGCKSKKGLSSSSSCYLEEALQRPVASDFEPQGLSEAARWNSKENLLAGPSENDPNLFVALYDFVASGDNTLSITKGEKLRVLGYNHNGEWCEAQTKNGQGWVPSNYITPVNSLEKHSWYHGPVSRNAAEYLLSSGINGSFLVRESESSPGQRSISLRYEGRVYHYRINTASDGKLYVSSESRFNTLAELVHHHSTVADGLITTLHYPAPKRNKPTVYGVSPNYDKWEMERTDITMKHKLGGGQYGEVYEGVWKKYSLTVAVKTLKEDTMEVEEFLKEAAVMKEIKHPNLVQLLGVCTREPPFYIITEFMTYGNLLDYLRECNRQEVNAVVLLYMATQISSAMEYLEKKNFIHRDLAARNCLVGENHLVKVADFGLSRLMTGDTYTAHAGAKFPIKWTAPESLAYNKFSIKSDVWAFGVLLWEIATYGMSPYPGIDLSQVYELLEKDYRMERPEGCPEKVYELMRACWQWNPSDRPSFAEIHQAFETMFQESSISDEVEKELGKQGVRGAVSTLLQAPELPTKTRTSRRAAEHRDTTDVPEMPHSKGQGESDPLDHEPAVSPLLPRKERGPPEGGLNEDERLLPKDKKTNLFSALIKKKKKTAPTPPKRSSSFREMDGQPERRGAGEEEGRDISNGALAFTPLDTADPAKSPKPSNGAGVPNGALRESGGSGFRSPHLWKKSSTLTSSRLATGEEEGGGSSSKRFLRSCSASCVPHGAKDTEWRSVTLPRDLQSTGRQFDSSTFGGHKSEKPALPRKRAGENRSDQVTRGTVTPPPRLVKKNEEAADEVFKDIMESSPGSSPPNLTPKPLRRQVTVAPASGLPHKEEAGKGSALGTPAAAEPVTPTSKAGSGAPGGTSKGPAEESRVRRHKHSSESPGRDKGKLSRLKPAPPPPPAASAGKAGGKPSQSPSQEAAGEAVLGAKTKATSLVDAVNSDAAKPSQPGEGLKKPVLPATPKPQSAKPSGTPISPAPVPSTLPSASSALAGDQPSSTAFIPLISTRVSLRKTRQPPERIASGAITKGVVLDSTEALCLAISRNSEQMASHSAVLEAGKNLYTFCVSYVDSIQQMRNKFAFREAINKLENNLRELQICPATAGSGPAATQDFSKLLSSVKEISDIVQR
Sequence of Serine/threonine-protein kinase PAK 6 (Homo sapiens) (Q9NQU5 whole entry, looked up): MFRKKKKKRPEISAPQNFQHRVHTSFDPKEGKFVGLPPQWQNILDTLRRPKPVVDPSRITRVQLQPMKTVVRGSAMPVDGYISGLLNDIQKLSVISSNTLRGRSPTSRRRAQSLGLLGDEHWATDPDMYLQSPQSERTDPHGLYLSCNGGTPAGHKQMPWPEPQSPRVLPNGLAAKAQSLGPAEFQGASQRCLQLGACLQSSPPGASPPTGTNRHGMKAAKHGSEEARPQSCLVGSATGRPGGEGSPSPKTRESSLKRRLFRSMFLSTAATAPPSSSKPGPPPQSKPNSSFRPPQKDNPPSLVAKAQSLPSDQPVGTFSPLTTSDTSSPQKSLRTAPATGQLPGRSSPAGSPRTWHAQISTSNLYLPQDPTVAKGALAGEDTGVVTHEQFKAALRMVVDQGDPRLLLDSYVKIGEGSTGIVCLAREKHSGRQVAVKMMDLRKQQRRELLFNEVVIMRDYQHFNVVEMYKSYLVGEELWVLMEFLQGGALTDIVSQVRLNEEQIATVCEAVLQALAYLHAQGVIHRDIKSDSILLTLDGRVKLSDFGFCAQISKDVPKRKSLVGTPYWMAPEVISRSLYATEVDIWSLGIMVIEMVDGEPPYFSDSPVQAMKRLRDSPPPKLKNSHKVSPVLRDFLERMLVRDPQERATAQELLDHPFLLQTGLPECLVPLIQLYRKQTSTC
Sequence of Ribosomal protein S6 kinase alpha-1 (Q15418 whole entry): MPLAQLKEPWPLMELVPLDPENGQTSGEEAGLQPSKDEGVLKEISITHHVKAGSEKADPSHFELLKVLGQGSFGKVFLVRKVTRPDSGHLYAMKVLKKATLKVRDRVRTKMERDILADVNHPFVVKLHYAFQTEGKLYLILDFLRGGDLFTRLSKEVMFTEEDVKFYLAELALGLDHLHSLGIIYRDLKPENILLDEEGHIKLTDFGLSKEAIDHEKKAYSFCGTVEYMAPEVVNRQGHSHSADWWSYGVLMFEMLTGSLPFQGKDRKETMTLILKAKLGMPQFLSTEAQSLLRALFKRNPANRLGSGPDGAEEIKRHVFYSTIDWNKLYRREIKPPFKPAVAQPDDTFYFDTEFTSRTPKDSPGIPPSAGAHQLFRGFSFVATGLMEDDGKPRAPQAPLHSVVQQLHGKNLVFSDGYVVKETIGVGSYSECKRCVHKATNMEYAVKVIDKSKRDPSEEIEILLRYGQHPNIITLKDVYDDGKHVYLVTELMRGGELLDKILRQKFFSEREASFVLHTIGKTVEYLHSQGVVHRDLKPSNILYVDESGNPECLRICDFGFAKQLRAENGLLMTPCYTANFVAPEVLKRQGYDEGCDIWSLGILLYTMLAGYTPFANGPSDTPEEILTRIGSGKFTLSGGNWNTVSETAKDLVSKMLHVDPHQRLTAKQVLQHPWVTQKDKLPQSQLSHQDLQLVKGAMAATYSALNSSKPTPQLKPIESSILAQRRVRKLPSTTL
Sequence of Sigma non-opioid intracellular receptor 1 (Homo sapiens) (Q99720 whole entry): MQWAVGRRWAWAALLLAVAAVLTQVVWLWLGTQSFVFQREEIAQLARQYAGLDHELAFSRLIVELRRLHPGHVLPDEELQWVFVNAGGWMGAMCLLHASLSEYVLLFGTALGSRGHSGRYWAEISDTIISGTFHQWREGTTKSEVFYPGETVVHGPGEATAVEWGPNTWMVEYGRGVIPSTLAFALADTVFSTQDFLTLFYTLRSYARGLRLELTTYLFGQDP
Sequence of Tyrosine-protein kinase Blk (Homo sapiens) (P51451 2-505 limits assumed): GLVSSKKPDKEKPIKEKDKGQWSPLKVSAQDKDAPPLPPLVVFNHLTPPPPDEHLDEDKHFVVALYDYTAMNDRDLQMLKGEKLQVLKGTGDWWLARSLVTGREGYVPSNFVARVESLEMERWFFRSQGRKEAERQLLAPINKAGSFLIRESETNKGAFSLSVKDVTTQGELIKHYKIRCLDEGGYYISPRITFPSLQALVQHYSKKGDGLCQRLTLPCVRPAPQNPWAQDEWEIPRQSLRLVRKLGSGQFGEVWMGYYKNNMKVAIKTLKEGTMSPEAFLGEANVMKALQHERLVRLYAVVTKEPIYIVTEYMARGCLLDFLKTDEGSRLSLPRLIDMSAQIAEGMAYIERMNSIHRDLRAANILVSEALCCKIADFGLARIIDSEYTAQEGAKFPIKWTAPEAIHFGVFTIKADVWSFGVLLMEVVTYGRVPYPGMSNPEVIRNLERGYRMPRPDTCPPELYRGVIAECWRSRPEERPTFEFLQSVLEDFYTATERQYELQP

On to `N#Cc1cccc(-c2c[nH]c3ncnc(N4CCOCC4)c23)c1`, for which the % of inhibition in test [1] is 54%; in [3], -6%. This compound came in with a % of control in [2] of 60%.
In turn, `CC(=O)c1cc(-c2ccccc2OCC2CC2)c2ncccn12` registered a % of control in test [4] of 98%.
For `CC[C@@H]1[C@H](F)C(=O)N[C@@H]1COc1nccc2cc(C(N)=O)c(OC)cc12` [ZIMLOVISERTIB], the % of inhibition in test [5] turned out to be 16%; in test [6] it was 0.2%.
On to `C=CC(=O)Nc1cc(-n2c(=O)ccc3cnc4ccc(-c5ccc(NS(C)(=O)=O)cc5)cc4c32)ccc1C`, for which the values for the % of control in [7], in test [8] (at 1 µM) and in test [8] (at 10 µM) were 79%, 100% and 100%, respectively.
Turning to `Cc1ccc(-c2ccc3c(ccc4sc5c(c43)NC[C@@H](C)NC5=O)n2)cn1`, the % of inhibition in test [9] was 4%.
As for `CCC(=O)N1CC[C@H](Nc2ncnc3c2CN(c2cnc(OC)c(C(F)(F)F)c2)CC3)C1` [LENIOLISIB], the IC50 (as a rule, the midpoint of a concentration-inhibition curve) in [10] is above 30 µM.
Turning to `Cc1cc(CN)cc(C)c1-c1ncn(C)c1-c1cncn1C`, the dTagg in [11] is 0.1 K.
Consider `Nc1cnc(N2CCc3cc(S(=O)(=O)Nc4c(F)cc(Cl)cc4F)cc(N4CCCC4=O)c32)nc1` [TP-020n], for which the % of inhibition in test [12] is -10.1%. Also, the values for the % of control in test [13], in [14] and in test [15] were 100%, 100% and 93%, respectively.

Values taken from ChEMBL document CHEMBL5465560, “Selectivity Literature for EUbOPEN Chemogenomic Library” (2024).
